What is called IC50 is the concentration at which inhibition is half-maximal.

The source of these data is patent publication US8946203B2, “Benzodioxane inhibitors of leukotriene production” (Boehringer Ingelheim International GmbH, priority 2012, dated 2015).

The target in assay [1] is T1, human LTA4 hydrolase (Homo sapiens, UniProt P09960).
T1 sequence (P09960 1-611): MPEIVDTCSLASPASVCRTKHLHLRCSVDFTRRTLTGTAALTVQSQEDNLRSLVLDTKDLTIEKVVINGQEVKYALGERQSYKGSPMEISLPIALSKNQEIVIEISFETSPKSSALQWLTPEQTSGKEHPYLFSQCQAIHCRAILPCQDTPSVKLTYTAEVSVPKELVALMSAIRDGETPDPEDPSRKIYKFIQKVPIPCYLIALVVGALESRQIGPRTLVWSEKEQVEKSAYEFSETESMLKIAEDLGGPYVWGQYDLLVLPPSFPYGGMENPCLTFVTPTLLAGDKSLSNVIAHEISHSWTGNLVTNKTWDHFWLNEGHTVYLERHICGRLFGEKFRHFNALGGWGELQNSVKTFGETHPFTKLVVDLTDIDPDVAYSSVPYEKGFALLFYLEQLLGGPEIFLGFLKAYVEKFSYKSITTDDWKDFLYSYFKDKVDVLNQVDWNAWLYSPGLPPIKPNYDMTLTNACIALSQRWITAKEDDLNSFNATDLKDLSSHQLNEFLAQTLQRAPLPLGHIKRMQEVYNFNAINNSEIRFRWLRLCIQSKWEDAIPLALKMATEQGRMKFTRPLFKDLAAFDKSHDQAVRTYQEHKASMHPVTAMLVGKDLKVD
Briefly: LTA4H Enzyme assay (cleavage of Arg-AMC, fluorescence). It is filed as biochemical. In a few lines:
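Aminomethylcoumarin release measured fluorimetrically (380/460 nm) after 1 h at room temperature. Reaction: 1 nM final enzyme, 50 μM final Arg-AMC and compound in Tris-HCl pH 7.5 with 100 mM KCl and 0.5% BSA.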

Assay [2] relates to synthesis of LTB4 in human whole blood. The experiment in a line: human whole blood (HWB) assay, LTB4 production inhibition after calcimycin stimulation. It is filed as cell-based. The note with it: heparinized human whole blood, calcimycin 20 μM, plasma LTB4 by HTRF. In a few lines:
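Plasma LTB4, quantified by HTRF immunoassay, is the read-out after calcimycin challenge (20 μM final, 30 min, 37 °C) of heparinized whole blood that had been pretreated with compound for 15 min at 37 °C; values given as IC50.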
Background: In TR-FRET formats the signal depends on donor and acceptor labels being close together.

Setting [3] is: LTA4H Enzyme 1 nM, Arg-AMC substrate 50 μM, room temperature 1 h, fluorescence, read-out: IC50 values of LTA4H Enzyme assay.

Each structure is given as a SMILES string. Like-named read-outs stand apart in the source and are kept apart here.

For the compound `CC(=O)N[C@H]1C[C@H]2CC[C@@H](C1)N2Cc1ccc([C@H]2COc3cccnc3O2)cc1` [Example 278, N-{(endo)-8-[(S)-4-(2,3-Dihydro-[1,4]dioxino[2,3-b]pyridin-3-yl)-benzyl]-8-aza-bicyclo[3.2.1]oct-3-yl}-acetamide], the half-maximal inhibitory concentration (IC50) in assay [1] (setting [3]) was found to be 0.26 nM; in assay [2], 73 nM.
With `CC(=O)NCC1CCN(Cc2ccc([C@H]3COc4cccnc4O3)cc2)CC1` [Example 279, N-{1-[(S)-4-(2,3-Dihydro-[1,4]dioxino[2,3-b]pyridin-3-yl)-benzyl]-piperidin-4-ylmethyl}-acetamide], the results for the IC50 in assay [1] (setting [3]) and in assay [2] were 0.34 nM and 93 nM, respectively.
For `CN(Cc1ccc([C@H]2COc3cccnc3O2)cc1)C1CCS(=O)(=O)C1` (stereo partly drawn) [Example 280, [(S)-4-(2,3-Dihydro-[1,4]dioxino[2,3-b]pyridin-3-yl)-benzyl]-(1,1-dioxo-tetrahydro-1lambda-6-thiophen-3-yl)-methyl-amine] the same measures were 2.4 nM and 230 nM.
Turning to `O=C(CO)N1C[C@@H]2CC[C@H]1CN2Cc1ccc([C@H]2COc3cccnc3O2)cc1` [Example 281, 1-{(1S,4S)-5-[(S)-4-(2,3-Dihydro-[1,4]dioxino[2,3-b]pyridin-3-yl)-benzyl]-2,5-diaza-bicyclo[2.2.2]oct-2-yl}-2-hydroxy-ethanone], the IC50 in assay [1] (setting [3]) was 0.17 nM; in assay [2], 37 nM.
As for `NC(=O)N1CC2(CCN(Cc3ccc([C@H]4COc5cccnc5O4)cc3)CC2)c2ccccc21` [Example 282], the IC50 came to 0.17 nM in assay [1] and 61 nM in assay [2].
Take `NC(=O)NCC1CCN(Cc2ccc([C@H]3COc4cccnc4O3)cc2)CC1` [Example 283, {1-[(S)-4-(2,3-Dihydro-[1,4]dioxino[2,3-b]pyridin-3-yl)-benzyl]-piperidin-4-ylmethyl}-urea]: the figures for the IC50 in assay [1] (setting [3]) and in assay [2] were 0.36 nM and 540 nM, respectively.
As to `N#CCN1CCN(Cc2ccc([C@H]3COc4cccnc4O3)cc2)CC1` [Example 284, {4-[(S)-4-(2,3-Dihydro-[1,4]dioxino[2,3-b]pyridin-3-yl)-benzyl]-piperazin-1-yl}-acetonitrile], the IC50 was found to be 3.9 nM in assay [1] (setting [3]) and 290 nM in assay [2].
For `O=C1OC[C@H]2CN(Cc3ccc([C@H]4COc5cccnc5O4)cc3)CCN12` [Example 285, (R)-7-[(S)-4-(2,3-Dihydro-[1,4]dioxino[2,3-b]pyridin-3-yl)-benzyl]-hexahydro-oxazolo[3,4-a]pyrazin-3-one] the same measures were 1 nM and 200 nM.
The matching figures for `O=C(C1CCN(Cc2ccc([C@H]3COc4cccnc4O3)cc2)CC1)N1CC(O)C1` [Example 286, {1-[(S)-4-(2,3-Dihydro-[1,4]dioxino[2,3-b]pyridin-3-yl)-benzyl]-piperidin-4-yl}-(3-hydroxy-azetidin-1-yl)-methanone]: 0.35 nM and 190 nM.
The matching figures for `O=C(NC[C@@H]1CCCO1)C1CCN(Cc2ccc([C@H]3COc4cccnc4O3)cc2)CC1` [Example 287, 1-[(S)-4-(2,3-Dihydro-[1,4]dioxino[2,3-b]pyridin-3-yl)-benzyl]-piperidine-4-carboxylic acid [(S)-1-(tetrahydro-furan-2-yl)methyl]-amide]: 0.19 nM and 55 nM.
For the compound `CC(=O)NCCC(=O)N1CCN(Cc2ccc([C@H]3COc4cccnc4O3)cc2)CC1` [Example 288, N-[3-[4-[[4-[(3S)-2,3-dihydro-[1,4]dioxino[2,3-b]pyridin-3-yl]phenyl]methyl]piperazin-1-yl]-3-oxo-propyl]acetamide], the IC50 was 0.88 nM in assay [1] (setting [3]) and 150 nM in assay [2].
In the case of `O=C(CN1CCCC1=O)NC1CCN(Cc2ccc([C@H]3COc4cccnc4O3)cc2)CC1` [Example 289, N-[1-[[4-[(3S)-2,3-dihydro-[1,4]dioxino[2,3-b]pyridin-3-yl]phenyl]methyl]-4-piperidyl]-2-(2-oxopyrrolidin-1-yl)acetamide], the IC50 in assay [1] (setting [3]) was found to be 0.4 nM; in assay [2], 170 nM.
In the case of `O=C(NC1CCN(Cc2ccc([C@H]3COc4cccnc4O3)cc2)CC1)C1CCOCC1` [Example 290, N-[1-[[4-[(3S)-2,3-dihydro-[1,4]dioxino[2,3-b]pyridin-3-yl]phenyl]methyl]-4-piperidyl]tetrahydropyran-4-carboxamide], the half-maximal inhibitory concentration (IC50) turned out to be 0.2 nM in assay [1] (setting [3]) and 48 nM in assay [2].
The matching figures for `O=C1OCCCN1C1CCN(Cc2ccc([C@H]3COc4cccnc4O3)cc2)CC1` [Example 291, 3-{1-[(S)-4-(2,3-Dihydro-[1,4]dioxino[2,3-b]pyridin-3-yl)-benzyl]-piperidin-4-yl}-[1,3]oxazinan-2-one]: 0.19 nM and 56 nM.
The matching figures for `CC(=O)N1C[C@@H]2C[C@H]1CN2Cc1ccc([C@H]2COc3cccnc3O2)cc1` [Example 292, 1-{(1S,4S)-5-[(S)-4-(2,3-Dihydro-[1,4]dioxino[2,3-b]pyridin-3-yl)-benzyl]-2,5-diaza-bicyclo[2.2.1]hept-2-yl}-ethanone]: 0.16 nM and 24 nM.
For `c1cncc(OC2CCN(Cc3ccc([C@H]4COc5cccnc5O4)cc3)CC2)c1` [Example 293, (S)-3-{4-[4-(Pyridin-3-yloxy)-piperidin-1-ylmethyl]-phenyl}-2,3-dihydro-[1,4]dioxino[2,3-b]pyridine] the same measures were 0.24 nM and 52 nM.
For `O=C(O)C1(c2ccccc2)CCN(Cc2ccc([C@H]3COc4cccnc4O3)cc2)CC1` [Example 294, 1-[(S)-4-(2,3-Dihydro-[1,4]dioxino[2,3-b]pyridin-3-yl)-benzyl]-4-phenyl-piperidine-4-carboxylic acid], the IC50 in assay [1] was 5.8 nM; in assay [2], 1300 nM.
On to `[O-][S+]1CCN(Cc2ccc([C@H]3COc4cccnc4O3)cc2)CC1` [Example 295, (S)-3-[4-(1-Oxo-1lambda4-thiomorpholin-4-ylmethyl)-phenyl]-2,3-dihydro-[1,4]dioxino[2,3-b]pyridine], for which the IC50 in assay [1] (setting [3]) was 0.79 nM; in assay [2], 120 nM.
The matching figures for `O=C1OC[C@@H]2CN(Cc3ccc([C@H]4COc5cccnc5O4)cc3)CCN12` [Example 296, (S)-7-[(S)-4-(2,3-Dihydro-[1,4]dioxino[2,3-b]pyridin-3-yl)-benzyl]-hexahydro-oxazolo[3,4-a]pyrazin-3-one]: 0.32 nM and 90 nM.
